# Results: ChEMBL document CHEMBL3509421, “FDA drug approval package for diclofenac acid (NDA 22-202 CP, Ref ID: 3374276)”
# Legend:
# [1] = (§1) Mean Kel of diclofenac potassium following oral dosing of Cataflam 50 mf tablet in healthy human; assay type: ADME, organism-based; design: dietary status Fasting, dose 50 mg, dosed compound id 2.46815e+06, dosed compound name Diclofenac potassium, gender Mixed, regimen Single, route oral, study doses 50 mg; details: both, plasma, 50 mg
# [2] = Mean AUC (0-t) value of diclofenac following single oral dosing of 35 mg Zorvolex capsule in healthy human; assay type: ADME, organism-based; design: dietary status Fasting, dose 35 mg, dosed compound id 2.46815e+06, dosed compound name Diclofenac, gender Mixed, regimen Single, route oral; details: both, plasma
# [3] = Mean Tmax of diclofenac following single oral dosing of 50 mg diclofenac potassium softgel capsule in healthy human; assay type: ADME, organism-based; design: dietary status Fed, dose 50 mg, dosed compound id 2.46815e+06, dosed compound name Diclofenac potassium, gender Mixed, regimen Single, route oral, study doses 25/50 mg; details: both, plasma
# [4] = Mean Kel of diclofenac potassium following oral dosing of PRO-513 50 mg sachet in healthy human; assay type: ADME, organism-based; design: dietary status Fasting, dose 50 mg, dosed compound id 2.46815e+06, dosed compound name Diclofenac potassium, gender Mixed, regimen Single, route oral, study doses 50 mg; details: both, plasma
# [5] = Minimum tmax of diclofenac following single oral dosing of 35 mg Zorvolex capsule in healthy human; assay type: ADME, organism-based, Plasma; design: dietary status Fasting, dose 35 mg, dosed compound id 2.46815e+06, dosed compound name Diclofenac, gender Mixed, regimen Single, route oral; details: in vivo
# [6] = Maximum tmax of diclofenac following single oral dosing of 35 mg Zorvolex capsule in healthy human; assay type: ADME, organism-based, Plasma; design: dietary status Fed, dose 35 mg, dosed compound id 2.46815e+06, dosed compound name Diclofenac, gender Mixed, regimen Single, route oral; details: in vivo
# [7] = (§2) Mean AUC (0-t) value of diclofenac following single oral dosing of 50 mg Cataflam tablet in healthy human; assay type: ADME, organism-based; design: dietary status Fed, dose 50 mg, dosed compound id 2.46815e+06, dosed compound name Diclofenac potassium, gender Mixed, regimen Single, route oral; details: both, plasma
# [8] = (§3) Maximum tmax of diclofenac following single oral dosing of 50 mg Cataflam tablet in healthy human; assay type: ADME, organism-based, Plasma; design: dietary status Fasting, dose 50 mg, dosed compound id 2.46815e+06, dosed compound name Diclofenac potassium, gender Mixed, regimen Single, route oral; details: in vivo
# [9] = Mean Cmax of diclofenac following single oral dosing of 50 mg diclofenac potassium soft gelatin capsule in healthy human; assay type: ADME, organism-based; design: dietary status Fasting, dose 50 mg, dosed compound id 2.46815e+06, dosed compound name Diclofenac potassium, gender Mixed, regimen Single, route oral, study doses 25/50 mg; details: both, plasma
# [10] = as §2; assay type: ADME, organism-based; design: dietary status Fasting, dose 50 mg, dosed compound id 2.46815e+06, dosed compound name Diclofenac potassium, gender Mixed, regimen Single, route oral; details: both, plasma
# [11] = Median tmax of diclofenac following single oral dosing of 18 mg Zorvolex capsule in healthy human; assay type: ADME, organism-based; design: dietary status Fasting, dose 18 mg, dosed compound id 2.46815e+06, dosed compound name Diclofenac, gender Mixed, regimen Single, route oral; details: both, plasma, read-out: Median Tmax
# [12] = as §3; assay type: ADME, organism-based, Plasma; design: dietary status Fed, dose 50 mg, dosed compound id 2.46815e+06, dosed compound name Diclofenac potassium, gender Mixed, regimen Single, route oral; details: in vivo
# [13] = Mean apparent terminal elimination rate constant value of diclofenac following single oral dosing of 50 mg Cataflam tablet in healthy human; assay type: ADME, organism-based, Plasma; design: dietary status Fasting, dose 50 mg, dosed compound id 2.46815e+06, dosed compound name Diclofenac potassium, gender Mixed, regimen Single, route oral; details: in vivo
# [14] = (§4) Mean AUC (0-t) of diclofenac following single oral dosing of 25 mg diclofenac potassium softgel capsule in healthy human; assay type: ADME, organism-based; design: dietary status Fasting, dose 25 mg, dosed compound id 2.46815e+06, dosed compound name Diclofenac potassium, gender Mixed, regimen Single, route oral, study doses 25/50 mg; details: both, plasma
# [15] = Geometric mean for AUC (0-infinity) of diclofenac following single oral dosing of 35 mg Zorvolex capsule in healthy human; assay type: ADME, organism-based; design: time infinity, dietary status Fed, dose 35 mg, dosed compound id 2.46815e+06, dosed compound name Diclofenac, gender Mixed, regimen Single, route oral; details: both, plasma, read-out: AUC (0-infinity)
# [16] = as §4; assay type: ADME, organism-based; design: dietary status Fed, dose 25 mg, dosed compound id 2.46815e+06, dosed compound name Diclofenac potassium, gender Mixed, regimen Single, route oral, study doses 25/50 mg; details: both, plasma
# clinical [17] = details: both, human, plasma, po, 35 mg
# [18] = Mean Cmax value of diclofenac following single oral dosing of 50 mg Cataflam tablet in healthy human; assay type: ADME, organism-based; design: dietary status Fasting, dose 50 mg, dosed compound id 2.46815e+06, dosed compound name Diclofenac potassium, gender Mixed, regimen Single, route oral; details: both, plasma
# [19] = Mean Cmax of diclofenac following single oral dosing of 50 mg Cataflam in healthy human; assay type: ADME, organism-based; design: dietary status Fasting, dose 50 mg, dosed compound id 2.46815e+06, dosed compound name Diclofenac potassium, gender Mixed, regimen Single, route oral, study doses 50 mg; details: both, plasma
# [20] = as §1; assay type: ADME, organism-based; design: dietary status Fed, dose 50 mg, dosed compound id 2.46815e+06, dosed compound name Diclofenac potassium, gender Mixed, regimen Single, route oral, study doses 50 mg; details: both, plasma, 50 mg
# [21] = Mean apparent terminal elimination rate constant value of diclofenac following single oral dosing of 35 mg Zorvolex capsule in healthy human; assay type: ADME, organism-based, Plasma; design: dietary status Fasting, dose 35 mg, dosed compound id 2.46815e+06, dosed compound name Diclofenac, gender Mixed, regimen Single, route oral; details: in vivo
# clinical [22] = details: both, human, plasma, po, 50 mg
# [23] = (§5) Geometric mean for AUC (0-infinity) of diclofenac following single oral dosing of 50 mg Cataflam tablet in healthy human; assay type: ADME, organism-based; design: dietary status Fed, dose 50 mg, dosed compound id 2.46815e+06, dosed compound name Diclofenac potassium, gender Mixed, regimen Single, route oral, time infinity; details: both, plasma, read-out: AUC (0-infinity)
# [24] = Mean minimum Tmax value of diclofenac potassium following oral dosing of PRO-513 50 mg sachet in healthy human; assay type: ADME, organism-based, Plasma; design: dietary status Fasting, dose 50 mg, dosed compound id 2.46815e+06, dosed compound name Diclofenac potassium, gender Mixed, regimen Single, route oral, study doses 50 mg; details: in vivo
# [25] = Mean AUC (0-t) of diclofenac following single oral dosing of 50 mg diclofenac potassium softgel capsule in healthy human; assay type: ADME, organism-based; design: dietary status Fed, dose 50 mg, dosed compound id 2.46815e+06, dosed compound name Diclofenac potassium, gender Mixed, regimen Single, route oral, study doses 25/50 mg; details: both, plasma
# [26] = Mean Tmax of diclofenac following single oral dosing of 25 mg diclofenac potassium softgel capsule in healthy human; assay type: ADME, organism-based; design: dietary status Fed, dose 25 mg, dosed compound id 2.46815e+06, dosed compound name Diclofenac potassium, gender Mixed, regimen Single, route oral, study doses 25/50 mg; details: both, plasma
# [27] = Minimum tmax of diclofenac following single oral dosing of 50 mg Cataflam tablet in healthy human; assay type: ADME, organism-based, Plasma; design: dietary status Fed, dose 50 mg, dosed compound id 2.46815e+06, dosed compound name Diclofenac potassium, gender Mixed, regimen Single, route oral; details: in vivo
# clinical [28] = details: both, human, plasma, po, 50 mg; remark: listed apart in the source
# Description: Mean terminal elimination half-life of diclofenac following single oral dosing of 50 mg diclofenac potassium softgel capsule in healthy human
# [29] = Mean Cmax value of diclofenac following single oral dosing of 35 mg Zorvolex capsule in healthy human; assay type: ADME, organism-based; design: dietary status Fasting, dose 35 mg, dosed compound id 2.46815e+06, dosed compound name Diclofenac, gender Mixed, regimen Single, route oral; details: both, plasma
# [30] = Geometric mean for apparent terminal elimination rate constant of diclofenac following single oral dosing of 50 mg Cataflam tablet in healthy human; assay type: ADME, organism-based, Plasma; design: dietary status Fed, dose 50 mg, dosed compound id 2.46815e+06, dosed compound name Diclofenac potassium, gender Mixed, regimen Single, route oral; details: in vivo
# [31] = Mean minimum Tmax value of diclofenac potassium following oral dosing of Cataflam 50 mf tablet in healthy human; assay type: ADME, organism-based; design: dietary status Fed, dose 50 mg, dosed compound id 2.46815e+06, dosed compound name Diclofenac potassium, gender Mixed, regimen Single, route oral, study doses 50 mg; details: both, plasma, 50 mg, read-out: Minimum Tmax
# [32] = as §5; assay type: ADME, organism-based, Plasma; design: time infinity, dietary status Fasting, dose 50 mg, dosed compound id 2.46815e+06, dosed compound name Diclofenac potassium, gender Mixed, regimen Single, route oral; details: in vivo
structure (smiles),measurement,setting,value
O=C(O)Cc1ccccc1Nc1c(Cl)cccc1Cl [DICLOFENAC],k el,[1],0.000164 s⁻¹
same,AUC(0-t),[2],1000 ng·h/mL
same,Tmax,[3],1.28 h
same,k el,[4],0.000156 s⁻¹
same,Minimum Tmax,[5],0.47 h
same,Maximum Tmax,[6],10 h
same,AUC(0-t),[7],1180 ng·h/mL
same,Maximum Tmax,[8],4.48 h
same,Cmax,[9],2040 ng/mL
same,AUC(0-t),[10],1320 ng·h/mL
same,Tmax,[11],1 h
same,Maximum Tmax,[12],4.53 h
same,lambda-z,[13],0.333 h⁻¹
same,AUC(0-t),[14],691 ng·h/mL
same,AUC(0-inf),[15],852 ng·h/mL
same,AUC(0-t),[16],680 ng·h/mL
same,half-life,clinical [17],2.24 h
same,Cmax,[18],1190 ng/mL
same,Cmax,[19],1170 ng/mL
same,k el,[20],0.000136 s⁻¹
same,lambda-z,[21],0.349 h⁻¹
same,half-life,clinical [22],2.27 h
same,AUC(0-inf),[23],1180 ng·h/mL
same,Minimum Tmax,[24],0.17 h
same,AUC(0-t),[25],1420 ng·h/mL
same,Tmax,[26],1.02 h
same,Minimum Tmax,[27],0.5 h
same,half-life,clinical [28],1.07 h
same,Cmax,[29],869 ng/mL
same,lambda-z,[30],0.318 h⁻¹
same,Tmax,[31],0.33 h
same,AUC (0-infinity),[32],1301.961 ng·h/mL
